Reference: patent publication US20240108684A1, “DOSING REGIMENS FOR TREATMENT OF FUNGAL INFECTIONS” (priority 2016, published 2024)
Where two headings read alike, the source gives them in different places. *1 amine or outer side, *2 acyl side, *3 side chain or, on linkers, in order; H or OH if unused. Where a SMILES comes first, the peptide text is derived from it. Bridges are numbered along the chain shown (N, C = ends). [ ]: non-standard residue; d: D form. The star is where a group is joined. Orn(4R-OH,5R-OCH2CH2NMe3+) = C[N+](C)(C)CCO[C@@H](N[*:3])[C@H](O)C[C@H](N[*:1])C(=O)[*:2]; pTerphenylCO(4''-OnC5H11) = CCCCCOc1ccc(-c2ccc(-c3ccc(C(=O)*)cc3)cc2)cc1; hTyr(3S-OH,4S-OH) = N[C@H](C(=O)O)[C@H](O)[C@@H](O)c1ccc(O)cc1; Pro(3S-OH,4S-Me) = C[C@H]1CN[C@H](C(=O)O)[C@H]1O; Hyp = O=C(O)[C@@H]1C[C@@H](O)CN1

Tests used:
C. albicans [1] = assay: Mutant prevention concentration (MPC); type: cell-based, Candida albicans
Excerpt: As used herein, the term “mutant prevention concentration” or “MPC” refers to the concentration of a drug sufficient to suppress the development of all but very rare spontaneous mutants. The range of drug concentrations between the MIC and MPC represents a mutant selection window wherein de novo mutants are most likely to occur. Therapeutic regimens that maximize the duration of drug concentrations in excess of the MPC thereby minimize the potential for resistance development during the course of therapy.
(§1) Selection of resistance strains in vivo predominantly occurs over a range of drug concentrations falling between the MIC and MPC values. Dosing paradigms that result in plasma drug concentrations in excess of the MPC are therefore more desirable and effective in preventing the development of de novo mutants during the course of therapy (see, e.g., Drlica et al., J. Antimicrob. Chemother. 52:11-17, 2003). Currently approved treatment regimens for caspofungin, micafungin, and anidulafungin involve once-daily dosing at levels such that the Cmax is unlikely to be equivalent to or exceed the MPC at any point during treatment.

[2] = Modeling of CD101 total plasma concentrations versus MPC; details: modeling based on in vivo PK data
Excerpt: as §1

C.albicans (Strain R303) [3] = assay: Dose-fractionation study in neutropenic mice, kidney fungal burden; details: 2 mg/kg as a single dose IP, at 168 hours
Procedure: Dose-Fractionation Study. Male or female ICR mice (5 per regimen and observation time) weighing 22±2 g were rendered neutropenic for the study by injecting the mice with cyclophosphamide treatment four days (−Day 4) (150 mg/kg IP) and one day (−Day 1) prior to infection at 100 mg/kg IP. Neutropenia was sustained for the duration of the study with cyclophosphamide doses (100 mg/kg IP) every 48 hours on days +1, +3, +5 and +7 after infection.
Mice were sacrificed 168 hours (7 days) following the start of treatment. Control arm mice were sacrificed 0, 24, and 48 hours post administration of vehicle. Paired kidneys are aseptically harvested, homogenized, and plated for colony counts to determine the fungal burden (CFU/g).

Murine protein binding = type: in vitro ADME; details: used to generate free-drug plasma concentrations
[4] = tested on: Aspergillus fumigatus (ATCC 13073); assay: Neutropenic mouse model of aspergillosis, survival; type: in vivo, mice; details: 2 mg/kg IV or IP one dose; 10 days; P<0.05
C. albicans [5] = details: Sentry 2014; compared with MIC of 0.5 mg/L; cited from earlier work
[6] = tested on: azole-resistant C. albicans R357 strain; assay: MIC and CLSI susceptibility, azole-resistant C. albicans R357; type: cell-based, Candida albicans; details: Candida albicans
[7] = PK model, free-drug plasma concentration-time profiles of fractionated regimens; parameters: species or system mice
Procedure: Pharmacokinetic-Pharmacodynamic Analyses. Using the data collected from the PK study, a PK model was developed in S-ADAPT. Using the developed PK model, concentration-time profiles and AUC0-168h values were computed for each dosing regimen administered in the dose-fractionation study. […] Relationships between the change in log10 CFU from start of therapy and AUC0-168h were explored.

C. albicans [8] = assay: MIC by CLSI standards; details: Candida albicans
C.albicans (Strain R303) [9] = assay: MIC of the infecting strain R303; details: Candida albicans
[10] = Solubility of test articles in vehicle, visual observation; details: 10% DMSO/1% Tween 20 in 0.9% NaCl; 0.3, 1 and 3 mg/mL
Procedure: Amphotericin B and fluconazole were in powder form. Amphotericin B was dissolved in 0.9% NaCl. Fluconazole was dissolved in water (WFI: water for injection).

glabrata = details: Sentry 2014; compared with MIC of 0.5 mg/L; cited from earlier work
[11] = Pharmacokinetic study, single IP dose; type: in vivo, ICR mice; details: 1 to 16 mg/kg IP
Procedure: Pharmacokinetic Study. Healthy female ICR mice were given a single dose of CD101 via intraperitoneal (IP) injection. The following doses, at three mice per dose, were studied: 1, 4, and 16 mg/kg.

C. auris isolates = assay: Candida auris antifungal susceptibility testing (AFST), CLSI M27-A3; type: cell-based
C. glabrata [12] = assay: MIC by CLSI standards; details: Nakaseomyces glabratus
[13] = Multiple ascending dose IV study in healthy adult subjects (safety, PK); type: in vivo, human; details: for Accumulation Ratio AUC0-168 / Accumulation Ratio Cmax: last/first dose; for Cmax / AUC(0-t): human, plasma, intravenous; for AUC(0-t): read-out: AUC0-168
Procedure: A second study of CD101 administered by IV injection to healthy adult subjects was also performed. In this study, subjects in 3 cohorts of 8 subjects (6 active, 2 placebo) each were randomized to receive multiple IV doses of CD101 or placebo (normal saline) infused over 60 (±5) minutes. Dose levels of CD101 assessed follow an ascending multiple-dose regimen (100 mg×2 doses, 200 mg×2 doses, or 400 mg×3 doses).
Pharmacokinetics were determined by analyzing plasma and urine samples for concentration of CD101 obtained from subjects who received CD101 in each cohort at various time points after administration of CD101.

C. glabrata [14] = assay: Neutropenic murine disseminated candidiasis model, PK/PD; details: for 1 log kill dose / Static Dose: single IP dose, 7 days
[15] = 100 mg x2, 200 mg x2 or 400 mg x3 doses IV

CCCCCOc1ccc(-c2ccc(-c3ccc(C(=O)N[C@H]4C[C@@H](O)[C@@H](OCC[N+](C)(C)C)NC(=O)[C@@H]5[C@@H](O)[C@@H](C)CN5C(=O)[C@H]([C@@H](C)O)NC(=O)[C@H]([C@H](O)[C@@H](O)c5ccc(O)cc5)NC(=O)[C@@H]5C[C@@H](O)CN5C(=O)[C@H]([C@@H](C)O)NC4=O)cc3)cc2)cc1 [CD101] ({pTerphenylCO(4''-OnC5H11)}-[Orn(4R-OH,5R-OCH2CH2NMe3+)]T[Hyp][hTyr(3S-OH,4S-OH)]T[Pro(3S-OH,4S-Me)]; lactam 1-C)
MPC (C. albicans [1]): 16 µg/mL
IV dose sufficient to generate concentrations in excess of 16 μg/ml (MPC) [2]: ≥ 150 mg
CFU reduction from baseline (C.albicans (Strain R303) [3]): greater than 2 log10 CFU
Murine protein binding value (Murine protein binding): 99.1%
Survival versus vehicle [4]: significantly longer survival than vehicle
MIC90 (C. albicans [5]): 0.06 µg/mL
MIC [6]: 0.125 µg/mL
Time free-drug plasma concentrations of single dose remain above the daily regimen ([7]; 2 mg/kg total dose): 48 h
Time free-drug plasma concentrations of single dose remain above the twice weekly regimen ([7]; 2 mg/kg total dose): 84 h
Free-drug plasma AUC0≥ ([7]; CD101 2 mg/kg as a single dose): 0.0654 mgh/L
Free-drug plasma AUC0≥ ([7]; CD101 2 mg/kg total, daily regimen): 0.00948 mgh/L
Free-drug plasma AUC0≥ ([7]; CD101 2 mg/kg total, twice weekly): 0.0303 mgh/L
MIC (C. albicans [8]; C. albicans 98-17): 0.06 µg/mL
MIC (C. albicans [8]; C. albicans 98-210): 0.016 µg/mL
MIC (C. albicans [8]; C. albicans 580): 0.016 µg/mL
MIC (C. albicans [8]; C. albicans K-1): 0.008 µg/mL
MIC (C. albicans [8]; read-out: MICs, 4 C. albicans strains): 0.008 to 0.06 µg/mL
MIC (C.albicans (Strain R303) [9]): 0.125 µg/mL
Solubility [10]: S
MIC90 (glabrata): 0.06 µg/mL
Linearity of PK [11]: linear PK
Activity in comparison (C. auris isolates; 38 C. auris isolates): activity similar to MICA
Breakthrough at 48 h (C. auris isolates; C. auris strains): not with CD101
Number of resistant C. auris isolates (C. auris isolates; of 38 isolates): 4
MIC (C. glabrata [12]; C. glabrata 5592): 0.06 µg/mL
MIC (C. glabrata [12]; C. glabrata 10956): 0.5 µg/mL
MIC (C. glabrata [12]; C. glabrata 35315): 0.25 µg/mL
MIC (C. glabrata [12]; read-out: MICs, 3 C. glabrata strains): 0.06 to 0.5 µg/mL
Accumulation Ratio AUC0-168 ([13]; 100 mg (Day 1/Day 8)): 1.30
Accumulation Ratio Cmax ([13]; 100 mg (Day 1/Day 8)): 1.14
Drug-related AEs from laboratory abnormalities [13, 15]: no drug-related AEs resulting from clinically significant hematology or clinical chemistry laboratory abnormalities at any dose
ECG, vital signs, physical exam [13, 15]: no safety issues related to ECGs, vital signs, or physical exam findings
Serious and severe adverse events [13, 15]: no SAEs or severe AEs
Severity and resolution of AEs [13, 15]: majority of AEs were mild, and all related AEs completely resolved by the end of the study
Accumulation Ratio AUC0-168 ([13]; 200 mg (Day 1/Day 8)): 1.43
Accumulation Ratio Cmax ([13]; 200 mg (Day 1/Day 8)): 1.17
Accumulation Ratio AUC0-168 ([13]; 400 mg (Day 1/Day 8/Day 15)): 1.55
Accumulation Ratio Cmax ([13]; 400 mg (Day 1/Day 8/Day 15)): 1.34
Cmax ([13]; 100 mg, 100 mg weekly, Day 1): 5670 ng/mL
AUC(0-t) ([13]; 100 mg, 100 mg weekly, Day 1): 299 µg·h/mL
Cmax ([13]; 100 mg, 100 mg weekly, Day 8): 6490 ng/mL
AUC(0-t) ([13]; 100 mg, 100 mg weekly, Day 8): 390 µg·h/mL
Cmax ([13]; 200 mg, 200 mg weekly, Day 1): 10600 ng/mL
AUC(0-t) ([13]; 200 mg, 200 mg weekly, Day 1): 570 µg·h/mL
Cmax ([13]; 200 mg, 200 mg weekly, Day 8): 12400 ng/mL
AUC(0-t) ([13]; 200 mg, 200 mg weekly, Day 8): 813 µg·h/mL
Cmax ([13]; 400 mg, 400 mg weekly, Day 1): 22700 ng/mL
AUC(0-t) ([13]; 400 mg, 400 mg weekly, Day 1): 1190 µg·h/mL
Cmax ([13]; 400 mg, 400 mg weekly, Day 15): 30500 ng/mL
AUC(0-t) ([13]; 400 mg, 400 mg weekly, Day 15): 1840 µg·h/mL
Safety and tolerability ([13]; multiple doses up to 400 mg): safe and well tolerated
Infusion reactions ([13]; primarily 400 mg cohort, most common with third dose): Four subjects in the CD101 group experienced mild, transient infusion reactions
1 log kill Ave 24 h AUC/MIC (C. glabrata [14]; C. glabrata 5592): 114
Stasis Ave 24 h AUC/MIC (C. glabrata [14]; C. glabrata 5592): 21.7
1 log kill dose (C. glabrata [14]; C. glabrata 5592): 0.51 mg/kg
Static Dose (C. glabrata [14]; C. glabrata 5592): 0.03 mg/kg
1 log kill Ave 24 h AUC/MIC (C. glabrata [14]; C. glabrata 10956): 301
Stasis Ave 24 h AUC/MIC (C. glabrata [14]; C. glabrata 10956): 120
1 log kill dose (C. glabrata [14]; C. glabrata 10956): 17.3 mg/kg
Static Dose (C. glabrata [14]; C. glabrata 10956): 6.29 mg/kg
1 log kill Ave 24 h AUC/MIC (C. glabrata [14]; C. glabrata 35315): 105
Stasis Ave 24 h AUC/MIC (C. glabrata [14]; C. glabrata 35315): 17.9
1 log kill dose (C. glabrata [14]; C. glabrata 35315): 2.39 mg/kg
Static Dose (C. glabrata [14]; C. glabrata 35315): 0.34 mg/kg
